Experimental findings from ChEMBL document CHEMBL5126628, “Aspersterols A-D, Ergostane-Type Sterols with an Unusual Unsaturated Side Chain from the Deep-Sea-Derived Fungus Aspergillus unguis” (J Nat Prod, 2022) are described below.

In experiment [1] the test system is HCT-15. The experiment is described as follows: Growth inhibition of human HCT-15 cells by SRB assay. Format: functional.
The subject of experiment [2] is ACHN. Kind of experiment: Growth inhibition of human ACHN cells by SRB assay. The format is functional. (In general: The SRB assay estimates cell density from bound dye.)
For experiment [3], the system named is PC-3. Kind of experiment: Growth inhibition of human PC-3 cells by SRB assay. Format: functional.
Experiment [4] deals with NUGC-3. Kind of experiment: Growth inhibition of human NUGC-3 cells by SRB assay. Format: functional.
The subject of experiment [5] is MDA-MB-231. Kind of experiment: Growth inhibition of human MDA-MB-231 cells by SRB assay. Format: functional.
Experiment [6] relates to NCI-H23. Kind of experiment: Growth inhibition of human NCI-H23 cells by SRB assay. The format is functional.
The test system of experiment [7] is RAW264.7. Kind of experiment: Antiinflammatory activity in mouse RAW264.7 cells assessed as reduction in LPS-induced nitric oxide production by griess assay. Format: functional, cell-based.
Experiment [8] has as its system RAW264.7. Kind of experiment: Antiinflammatory activity in mouse RAW264.7 cells assessed as reduction in LPS-induced IL6 mRNA expression […]. Format: functional, cell-based. Particulars: DDE = dose-dependent effect. (In general: Griess reagent forms a coloured azo dye with nitrite.)
Experiment [9] deals with RAW264.7. Kind of experiment: Antiinflammatory activity in mouse RAW264.7 cells assessed as reduction in LPS-induced iNOS mRNA expression […]. Format: functional, cell-based. Particulars: DDE = dose-dependent effect.
The test system of experiment [10] is RAW264.7. The experiment is described as follows: Antiinflammatory activity in mouse RAW264.7 cells assessed as reduction in LPS-induced nitrite production by griess assay. Conditions: DDE = dose-dependent effect. Format: functional, cell-based.
Experiment [11] deals with RAW264.7. Kind of experiment: Antiinflammatory activity in mouse RAW264.7 cells assessed as reduction in LPS-induced IL6 production […]. The format is functional, cell-based. Conditions: DDE = dose-dependent effect.

Where a name gives a salt, the structure may show the parent alone.

For orientation: GI50 means the concentration that inhibits growth by half. Low readings indicate more potent growth inhibition, high ones less potent growth inhibition. As a reminder, the IC50 is the concentration that gives 50% inhibition.

As to `CC(/C=C/[C@H](C)C(C)C)=C1\[C@H](O)C[C@H]2C3=CC(=O)[C@@]4(O)C[C@@H](O)CC[C@]4(C)[C@H]3CC[C@]12C`, the GI50 in experiment [1], in [2], in experiment [3], in experiment [4], in experiment [5] and in experiment [6] was over 30 µM each time. Moreover, the IC50 in [7] came out at 14.5 µM.
For the molecule `CC(/C=C/[C@H](C)C(C)C)=C1\CC[C@H]2C3=CC(=O)[C@@]4(O)C[C@@H](O)CC[C@]4(C)[C@H]3CC[C@]12C`, the GI50 in experiment [1] is 13.2 µM; in experiment [2], 12.5 µM; in experiment [3], 13.8 µM; in experiment [4], 11.5 µM; in experiment [5] it was 13.5 µM; in experiment [6] it was 10.3 µM. The inhibition result in [8], in experiment [9], in experiment [10] and in experiment [11] was “Dde” throughout. Besides, the IC50 in [7] was 11.6 µM.
With `CC(/C=C/[C@H](C)C(C)C)=C1\[C@H](O)C[C@H]2c3cc4c(c(C)c3CC[C@]12C)CC[C@H](O)C4`, the GI50 in experiment [1] was found to be 4.5 µM; in [2] it was 4.3 µM; in [3], 3.9 µM; in experiment [4], 4.2 µM; in experiment [5], 3.4 µM; in experiment [6], 4.4 µM.
For `COc1cccc2c1C(=O)c1c(O)c3c(c(O)c1C2=O)C[C@@](O)(C(=O)CO)C[C@@H]3O[C@H]1C[C@H](N)[C@H](O)[C@H](C)O1` [DOXORUBICIN HYDROCHLORIDE], the GI50 in experiment [1] came out at 0.09 µM; in [2], 0.07 µM; in experiment [3] it was 0.09 µM; in [4] it was 0.08 µM; in experiment [5], 0.08 µM; in experiment [6] it was 0.08 µM.
For `CC(/C=C/[C@H](C)C(C)C)=C1\CC[C@H]2C3=CC(=O)[C@@]4(O)C[C@@H](O)CC[C@]4(C)[C@@]3(O)CC[C@]12C`, the GI50 in experiment [1], in experiment [2], in [3], in experiment [4], in experiment [5] and in experiment [6] was over 30 µM throughout. Further, the IC50 in experiment [7] was 19.5 µM.
